{
  "source": "paper PMC5088049",
  "about": "(Pharmacogenetics and genomics, 2016)",
  "molecules": {"B1": {"name": "AKR1C2 Phe46Tyr (Homo sapiens; F46Y) (protein)", "chain": "MDSKYQCVKLNDGHFMPVLGFGTYAPAEVPKSKALEAVKLAIEAGYHHIDSAHVYNNEEQVGLAIRSKIADGSVKREDIFYTSKLWSNSHRPELVRPALERSLKNLQLDYVDLYLIHFPVSVKPGEEVIPKDENGKILFDTVDLCATWEAMEKCKDAGLAKSIGVSNFNHRLLEMILNKPGLKYKPVCNQVECHPYFNQRKLLDFCKSKDIVLVAYSALGSHREEPWVDPNSPVLLEDPVLCALAKKHKRTPALIALRYQLQRGVVVLAKSYNEQRIRQNVQVFEFQLTSEEMKAIDGLNRNVRYLTLDIFAGPPNYPFSDEY"}},
  "key": {"AKR1C2 Phe46Tyr [1]": {"biological_target": "T1, AKR1C2 Phe46Tyr (Homo sapiens, UniProt P52895, F46Y)", "T1 sequence (P52895 1-323 F46Y)": "B1 chain", "details": "relative to wildtype AKR1C2; cited from earlier work"}, "AKR1C2 Phe46Tyr [2]": {"biological_target": "T1, AKR1C2 Phe46Tyr", "details": "cited from earlier work"}, "aromatase [3]": {"biological_target": "T2, aromatase (Homo sapiens, UniProt P11511)", "T2 sequence (P11511 1-503)": "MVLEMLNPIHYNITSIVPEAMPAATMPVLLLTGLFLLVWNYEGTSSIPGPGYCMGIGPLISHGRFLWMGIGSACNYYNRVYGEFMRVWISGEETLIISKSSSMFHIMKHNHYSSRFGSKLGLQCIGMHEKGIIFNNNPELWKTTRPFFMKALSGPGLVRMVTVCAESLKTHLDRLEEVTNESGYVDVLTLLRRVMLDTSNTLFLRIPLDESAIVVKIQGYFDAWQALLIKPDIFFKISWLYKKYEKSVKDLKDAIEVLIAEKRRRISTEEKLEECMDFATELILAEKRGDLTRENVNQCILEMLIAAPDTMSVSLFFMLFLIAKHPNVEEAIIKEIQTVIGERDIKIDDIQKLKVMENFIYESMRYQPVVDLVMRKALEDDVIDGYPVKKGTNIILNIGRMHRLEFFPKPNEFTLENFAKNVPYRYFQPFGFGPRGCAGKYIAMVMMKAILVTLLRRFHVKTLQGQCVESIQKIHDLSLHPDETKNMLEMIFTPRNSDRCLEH", "assay": "Inhibition of aromatase-mediated estrogen formation", "assay_type": "biochemical", "details": "unpublished observations"}, "aromatase [4]": {"biological_target": "T2, aromatase", "details": "aromatase-mediated estrogen formation; cited from earlier work"}, "[5]": {"details": "cited from earlier work"}, "not read": {"substrate": "C=C1C[C@@H]2[C@H](CC[C@]3(C)C(=O)CC[C@@H]23)[C@@]2(C)C=CC(=O)C=C12", "assay": "not read", "details": "other: AKR1C2 Phe46Tyr (rs2854482); 17β-DHE formation; 37.0 °C"}},
  "data": [
    {"molecule": "OC1Cc2cccc3cccc1c23", "note": "(stereo not shown) [1-acenaphthenol]", "values": [
      {"measurement": "decrease in overall AKR1C2 activity by Phe46Tyr substitution", "setting": "AKR1C2 Phe46Tyr [1]", "value": "approximately 30%"}
    ]},
    {"molecule": "C[C@]12CCC(=O)C[C@@H]1CC[C@@H]1[C@@H]2CC[C@]2(C)[C@@H](O)CC[C@@H]12", "note": "[5α-DHT]", "values": [
      {"measurement": "decrease in VMAX for reduction relative to wildtype enzyme", "setting": "AKR1C2 Phe46Tyr [2]", "value": 40, "unit": "%"}
    ]},
    {"molecule": "C=C1C[C@H]2[C@@H]3CC[C@@H](O)[C@@]3(C)CC[C@@H]2[C@@]2(C)C=CC(=O)C=C12", "note": "[17α-DHE, 17α-dihydroexemestane]", "values": [
      {"measurement": "aromatase-inhibiting properties", "setting": "aromatase [3]", "value": "no appreciable aromatase-inhibiting properties"}
    ]},
    {"molecule": "C=C1C[C@H]2[C@@H]3CC[C@H](O)[C@@]3(C)CC[C@@H]2[C@@]2(C)C=CC(=O)C=C12", "note": "[17β-DHE, 17β-dihydroexemestane]", "values": [
      {"measurement": "aromatase inhibition potency", "setting": "aromatase [4]", "value": "potency similar to its parent compound EXE"},
      {"measurement": "17β-DHE concentration relative to parent drug in plasma", "setting": "[5]; healthy individuals taking EXE", "value": "35–40%"},
      {"measurement": "variation of amount of 17β-DHE relative to EXE in human plasma", "setting": "[5]; pool of three participants", "value": "five-fold"}
    ]},
    {"molecule": "B1", "values": [
      {"measurement": "Km", "setting": "not read", "value": "13.5 ± 2.8", "unit": "µM"}
    ]}
  ]
}
